Reference: PubChem BioAssay AID212 (DTP/NCI, 2004)
“And” between values parts separate entries of the source, which are not always exact repeats. Equal entries are not always repeated. Inconclusive results are not listed.

System: BDF1 mice, colon carcinoma 38 sc, T/C %
Experiment: NCI In Vivo Anticancer Drug Screen. Data for tumor model Colon Carcinoma 38 (subcutaneous) in B6D2F1 (BDF1) mice
Conditions: endpoint: median tumor weight (est.), higher = larger tumour
Method: The antitumor activity of compounds was measured in mice bearing transplantable tumors. Survival or tumor size were measured and the results are expressed as the measurement made in the treated group (T) divided by the measurement made in the vehicle treated control group (C). The tumor model used in this assay is Colon Carcinoma 38 (subcutaneous) in B6D2F1 (BDF1) mice

[1] = dose: 25.0 mg/kg/injection, schedule: Q07DX002 (ip), vehicle: saline with Tween-80
[2] = dose: 12.5 mg/kg/injection, schedule: Q07DX002 (ip), vehicle: saline with Tween-80
[3] = dose: 50.0 mg/kg/injection, schedule: Q07DX002 (ip), vehicle: saline with Tween-80
[4] = dose: 100.0 mg/kg/injection, schedule: Q07DX002 (ip), vehicle: saline with Tween-80
[5] = dose: 200.0 mg/kg/injection, schedule: Q07DX002 (ip), vehicle: saline with Tween-80
[6] = dose: 6.25 mg/kg/injection, schedule: Q07DX002 (ip), vehicle: Klucel (hydroxypropylcellulose) (HPC)
[7] = dose: 12.5 mg/kg/injection, schedule: Q07DX002 (ip), vehicle: Klucel (hydroxypropylcellulose) (HPC)
[8] = dose: 25.0 mg/kg/injection, schedule: Q07DX002 (ip), vehicle: Klucel (hydroxypropylcellulose) (HPC)
[9] = dose: 100.0 mg/kg/injection, schedule: Q07DX002 (ip), vehicle: Klucel (hydroxypropylcellulose) (HPC)
[10] = dose: 200.0 mg/kg/injection, schedule: Q07DX002 (ip), vehicle: Klucel (hydroxypropylcellulose) (HPC)
[11] = dose: 2.5 mg/kg/injection, schedule: Q07DX002 (ip), vehicle: saline
[12] = dose: 12.5 mg/kg/injection, schedule: Q07DX003 (ip), vehicle: Klucel (hydroxypropylcellulose) (HPC)
[13] = dose: 25.0 mg/kg/injection, schedule: Q07DX003 (ip), vehicle: Klucel (hydroxypropylcellulose) (HPC)
[14] = dose: 12.5 mg/kg/injection, schedule: Q07DX002 (ip), vehicle: saline
[15] = dose: 25.0 mg/kg/injection, schedule: Q07DX002 (ip), vehicle: saline
[16] = dose: 50.0 mg/kg/injection, schedule: Q07DX002 (ip), vehicle: saline
[17] = dose: 100.0 mg/kg/injection, schedule: Q07DX002 (ip), vehicle: saline
[18] = dose: 200.0 mg/kg/injection, schedule: Q07DX002 (ip), vehicle: saline
[19] = dose: 400.0 mg/kg/injection, schedule: Q07DX002 (ip), vehicle: saline

`CCN(CC)CCCNc1nccc2c(C)c3[nH]c4ccncc4c3cc12` was tested, and the T/C (dose: 0.75 mg/kg/injection, schedule: Q07DX002 (ip), vehicle: acid diluted with saline) was 76 % of control, the T/C (dose: 0.75 mg/kg/injection, schedule: Q07DX002 (ip), vehicle: other) was 120 % of control and the T/C (dose: 1.25 mg/kg/injection, schedule: Q07DX002 (ip), vehicle: other) was 106 % of control. The T/C (dose: 1.5 mg/kg/injection, schedule: Q07DX002 (ip), vehicle: acid diluted with saline) was 100 % of control, the T/C (dose: 1.5 mg/kg/injection, schedule: Q07DX002 (ip), vehicle: other) was 108 % of control and the T/C (dose: 3.0 mg/kg/injection, schedule: Q07DX002 (ip), vehicle: acid diluted with saline) was 46 % of control. For the same compound, the T/C (dose: 3.0 mg/kg/injection, schedule: Q07DX002 (ip), vehicle: other) was 123 % of control, the T/C (dose: 6.0 mg/kg/injection, schedule: Q07DX002 (ip), vehicle: acid diluted with saline) was 69 % of control and the T/C (dose: 6.0 mg/kg/injection, schedule: Q07DX002 (ip), vehicle: other) was 66 % of control. The T/C (dose: 12.0 mg/kg/injection, schedule: Q07DX002 (ip), vehicle: acid diluted with saline) was 51 % of control, the T/C (dose: 12.0 mg/kg/injection, schedule: Q07DX002 (ip), vehicle: other) was 26 % of control and the T/C (dose: 20.0 mg/kg/injection, schedule: Q07DX002 (ip), vehicle: other) was 41 % of control.

`CCC(c1ccc(OC(=O)Cc2ccc(N(CCCl)CCCl)cc2)cc1)C(CC)c1ccc(OC(=O)Cc2ccc(N(CCCl)CCCl)cc2)cc1` (stereo not given) was tested, and the T/C (dose: 9.38 mg/kg/injection, schedule: Q07DX002 (ip), vehicle: saline with Tween-80) was 120 % of control, the T/C (dose: 18.7 mg/kg/injection, schedule: Q07DX002 (ip), vehicle: saline with Tween-80) was 92 % of control and the T/C (dose: 37.5 mg/kg/injection, schedule: Q07DX002 (ip), vehicle: saline with Tween-80) was 33 % of control. For the same compound, the T/C (dose: 75.0 mg/kg/injection, schedule: Q07DX002 (ip), vehicle: saline with Tween-80) was 46 % of control, the T/C (dose: 300.0 mg/kg/injection, schedule: Q07DX002 (ip), vehicle: saline with Tween-80) was 51 % of control and 61 % of control and the T/C (dose: 600.0 mg/kg/injection, schedule: Q07DX002 (ip), vehicle: saline with Tween-80) was 51 % of control and 61 % of control.

`O=C1N(Cl)C(=O)C(c2ccc(Cl)cc2)(c2ccc(Cl)cc2)N1Cl` was tested, and the T/C [1] was 87 % of control and 90 % of control and 100 % of control.

`CC(=O)Nc1ccc(S(=O)(=O)CO)cc1` was tested, and the T/C [2] was 116 % of control and 97 % of control, the T/C [1] was 84 % of control and 107 % of control and the T/C [3] was 89 % of control. The T/C [4] was 88 % of control and 91 % of control and the T/C [5] was 89 % of control and 97 % of control.

In the case of `C[C@]12CC[C@@H]3c4ccc(O)cc4CC[C@H]3[C@@H]1CC[C@@H]2O`, the T/C [6] was 83 % of control, the T/C [7] was 108 % of control and 249 % of control and the T/C [8] was 282 % of control and 99 % of control. For the same compound, the T/C (dose: 50.0 mg/kg/injection, schedule: Q07DX002 (ip), vehicle: Klucel (hydroxypropylcellulose) (HPC)) was 260 % of control, the T/C [9] was 282 % of control and the T/C [10] was 117 % of control and 271 % of control.

With `C[C@H]1C[C@@H]2[C@H]([C@@H](O)C[C@@]3(C)[C@H]2CC[C@]3(O)C(=O)CO)[C@@]2(C)C=CC(=O)C=C12` the T/C [6] was 82 % of control, the T/C [8] was 87 % of control and 88 % of control and the T/C [9] was 111 % of control and 86 % of control. For the same compound, the T/C [10] was 87 % of control and 88 % of control and the T/C (dose: 400.0 mg/kg/injection, schedule: Q07DX002 (ip), vehicle: Klucel (hydroxypropylcellulose) (HPC)) was 93 % of control.

For `CC1(C)OCC(CO)(Nc2nc(N3CC3)nc(N3CC3)n2)CO1`, the T/C (dose: 1.25 mg/kg/injection, schedule: Q07DX002 (ip), vehicle: saline) was 72 % of control, the T/C (dose: 1.25 mg/kg/injection, schedule: Q07DX003 (ip), vehicle: saline) was 166 % of control and the T/C [11] was 75 % of control. The T/C (dose: 2.5 mg/kg/injection, schedule: Q07DX003 (ip), vehicle: saline) was 111 % of control, the T/C (dose: 5.0 mg/kg/injection, schedule: Q07DX002 (ip), vehicle: saline) was 65 % of control and the T/C (dose: 5.0 mg/kg/injection, schedule: Q07DX003 (ip), vehicle: saline) was 49 % of control. The T/C (dose: 10.0 mg/kg/injection, schedule: Q07DX002 (ip), vehicle: saline) was 15 % of control.

For `C/C(=C\c1ccccc1)[N+](=O)[O-]`, the T/C [12] was 81 % of control, the T/C [13] was 79 % of control and 91 % of control and the T/C (dose: 50.0 mg/kg/injection, schedule: Q07DX003 (ip), vehicle: Klucel (hydroxypropylcellulose) (HPC)) was 82 % of control and 90 % of control.

`COc1cc(C2C3=C(CC(C)(C)CC3=O)N(CC(=O)O)C3=C2C(=O)CC(C)(C)C3)ccc1O` was tested, and the T/C [14] was 90 % of control, the T/C [15] was 99 % of control and the T/C [16] was 118 % of control. For the same compound, the T/C [17] was 111 % of control, the T/C [18] was 55 % of control and the T/C [19] was 118 % of control.

With `CC(=O)Oc1[nH]c(=O)c2cccc3c2c1CCC3` the T/C [3] was 161 % of control, the T/C [5] was 118 % of control and the T/C (dose: 400.0 mg/kg/injection, schedule: Q07DX002 (ip), vehicle: saline with Tween-80) was 122 % of control. The T/C (dose: 1600.0 mg/kg/injection, schedule: Q07DX002 (ip), vehicle: saline with Tween-80) was 118 % of control.

For `O=NN(CCCl)C(=O)NC1OC(CO)C(O)C(O)C1O` (stereo not given), the T/C [11] was 114 % of control and 96 % of control, the T/C (dose: 8.0 mg/kg/injection, schedule: Q07DX002 (ip), vehicle: saline) was 88 % of control and 92 % of control and the T/C (dose: 16.0 mg/kg/injection, schedule: Q07DX002 (ip), vehicle: saline) was 34 % of control and 58 % of control.

`O=C(NO)c1ccccc1` was tested, and the T/C [15] was 70 % of control, the T/C (dose: 25.0 mg/kg/injection, schedule: Q07DX002 (ip), vehicle: suspension in saline) was 168 % of control and the T/C [16] was 83 % of control. For the same compound, the T/C [17] was 63 % of control, the T/C [18] was 80 % of control and the T/C (dose: 200.0 mg/kg/injection, schedule: Q07DX002 (ip), vehicle: suspension in saline) was 165 % of control. For the same compound, the T/C [19] was 70 % of control, the T/C (dose: 400.0 mg/kg/injection, schedule: Q07DX002 (ip), vehicle: suspension in saline) was 103 % of control and the T/C (dose: 800.0 mg/kg/injection, schedule: Q07DX002 (ip), vehicle: saline) was 89 % of control. The T/C (dose: 800.0 mg/kg/injection, schedule: Q07DX002 (ip), vehicle: suspension in saline) was 105 % of control.

In the case of `COC1C(O)C(C)OC(OC2C(Oc3cccc4c(O)c5c(=O)oc6ccc(C)c7c(=O)oc(c34)c5c67)OC(C)C(O)C2O)C1O` (stereo not given), the T/C [7] was 118 % of control and 108 % of control, the T/C [2] was 111 % of control and the T/C [12] was 72 % of control and 92 % of control. For the same compound, the T/C [8] was 57 % of control, the T/C [1] was 83 % of control and the T/C [13] was 103 % of control. For the same compound, the T/C [3] was 84 % of control, the T/C [4] was 75 % of control and the T/C (dose: 100.0 mg/kg/injection, schedule: Q07DX003 (ip), vehicle: Klucel (hydroxypropylcellulose) (HPC)) was 88 % of control and 104 % of control. For the same compound, the T/C [10] was 157 % of control and the T/C [5] was 107 % of control.

`COc1ccc([I+]c2cccc(Cl)c2)cc1Cl` was tested, and the T/C (dose: 6.25 mg/kg/injection, schedule: Q07DX003 (ip), vehicle: saline with Tween-80) was 54 % of control, the T/C (dose: 12.5 mg/kg/injection, schedule: Q07DX003 (ip), vehicle: saline with Tween-80) was 78 % of control and the T/C (dose: 25.0 mg/kg/injection, schedule: Q07DX003 (ip), vehicle: saline with Tween-80) was 100 % of control. The T/C (dose: 50.0 mg/kg/injection, schedule: Q07DX003 (ip), vehicle: saline with Tween-80) was 111 % of control, the T/C (dose: 100.0 mg/kg/injection, schedule: Q07DX003 (ip), vehicle: saline with Tween-80) was 105 % of control and the T/C (dose: 200.0 mg/kg/injection, schedule: Q07DX003 (ip), vehicle: saline with Tween-80) was 72 % of control.

`CN(C)CC(Cl)CCl` (stereo not given) was tested, and the T/C [14] was 118 % of control, the T/C [15] was 105 % of control and the T/C [17] was 115 % of control. The T/C [18] was 118 % of control and the T/C [19] was 88 % of control.
